In EP2450046B1, “A MEDICINAL COMPOSITION FOR THE TREATMENT OF BRONCHITIS AND PREPARATION THEREOF” (Hebei Yiling Medicine Research Institute Co., Ltd., priority 2009, dated 2011):
Structures can show the parent of a compound that is named as a salt.

Assays:
[1] = test system: panting in the guinea pig induced by histamine plus acetylcholine; experiment: Dyspnea-relieving effect on panting in the guinea pig induced by histamine plus acetylcholine; format: in vivo, guinea pigs; conditions: Aminophylline 0.05 g/kg i.g. q.d. 3 days, n=10
Description: Sixty white purebred guinea pigs of Grade I evenly composed of males and females with the mean body weight of 198.55 ± 6.30g, provided by Beijing Keyu Animal Breeding Center, License number: SCXK (Jing) 2002-0005.
The healthy guinea pigs evenly composed of males and females were screened preciously. The guinea pigs were individually placed into the 4 L bell-shape glass container and sprayed with a mixed liquid of 2 % acetylcholine chloride and 0.1 % histamine phosphate in equal volumes at a pressure of 400 mmHg for 20s. […] The guinea pig showing the incubation period for asthmatic convulsion above 120s would not be chosen. […] The animals in the test groups were intragastrically administered q.d. at a volume of 5 ml/kg for consecutive three days, while the animals in the control group were administered with equal amount of physiological saline. An asthma-inducing experiment was performed in 30 min post the final administration. The guinea pigs were individually placed into the 4 L bell-shape glass container and sprayed with a mixed liquid of 2 % acetylcholine chloride plus 0.1 % histamine phosphate in equal volumes at a pressure of 400 mmHg for 20s. […] The incubation period lasting for more than 6 min was counted as 360 s. The experimental results were compared among the groups by t-test.

[2] = test system: citric acid-induced cough; experiment: Cough-checking effect on citric acid-induced cough in guinea pigs; format: in vivo; conditions: CHT 7mg/kg i.g. q.d. 3 days; n=10
Description: • (1) The present medication to be tested, 6.25g crude drugs/g, provided by Shijiazhuang Yiling Pharmaceutical Co. Ltd., lot number: 060501. • (2) GLKCNC as the traditional Chinese medicine control, 1g crude drugs/pill (0.3g of powder per pill), produced by Shanxi Guilong pharmaceutical Co., Ltd., Approval number: SFDA Approval No. Z-11; Lot number of the product: 060112; valid until December 2007. • (3) CHT as the Western medicine control, 10 mg/tablet, produced by Beijing Shuguang Pharmaceutical Co., Ltd., production date: 200606; lot number: 060619; valid until June, 2008.
Sixty purebred guinea pigs of Grade I evenly composed of males and females with the mean body weight of 206.65 ± 6.92g, provided by Beijing Keyu Animal Breeding Center, License number: SCXK (Jing) 2002-0005.
The guinea pigs were individually placed into the sealed 4L bell-shape container with prior to the experiment and a solution of 17.5% citric acid was sprayed for 1 minute at a pressure of 400 mmHg through the glass sparger. The guinea pigs were screened according to the cough number recorded within 5 minutes Guinea pigs with a cough number of less than 10 were rejected and the qualified ones were chosen for the experiment. […]

[3] = test system: aqueous ammonia-induced cough in mice; experiment: Cough-checking effect on the aqueous ammonia-induced cough in mice; format: in vivo, Kunming mice; conditions: CHT 12mg/kg i.g. q.d. 3 days; n=10
Description: • (1) The present medication to be tested, 6.25g crude drugs/g (i.e.,1g of the medication was made from 6.25g crude drugs), provided by Shijiazhuang Yiling Pharmaceutical Co. Ltd., lot number: 060501, and diluted to required concentrations with distilled water in the experiment. • (2) Cloperastine Hydrochloride Tablet (CHT) as the positive control of a western medicine, 10mg/tablet, produced by Beijing Shuguang Pharmaceutical Co., Ltd. lot number: 060619, and valid until June, 2008. • (3) Gui Long Ke Chuan Ning Capsule (GLKCNC) as the positive control of a traditional Chinese medicine, 1g crude drugs/pill (0.3g of powder per pill), produced by Shanxi Guilong pharmaceutical Co., Ltd., Approval number: SFDA Approval No. Z-11; Lot number of the product: 060112; valid until December 2007.
Sixty Kunming mice of Grade II evenly composed of males and females with the mean body weight of 19.90 ± 0.66 g, provided by Institute of Laboratory Animal Science, Chinese Academy of Medical Sciences, License number: SCXK (Jing) 2000-0006. […]

sputum volume in rats = experiment: Effect on sputum volume in rats measured by capillary; format: in vivo
Description: (§1) • (1) The present medication to be tested, 6.25 g of crude drug/g, provided by Shijiazhuang Yiling Pharmaceutical Co. Ltd., lot number: 060501. • (2) GLKCNC as the traditional Chinese medicine control, 1g crude drugs/pill (0.3g of powder per pill), produced by Shanxi Guilong pharmaceutical Co., Ltd., Approval number: SFDA Approval No. Z-11; Lot number of the product: 060112; valid until December 2007. • (3) Mucosolvan as a western medicine control, 30mg/tablet, the product of Boehringer Ingelheim Int. Ltd. German, lot number: 206362, distribution lot number:030307.
Sixty SPF Wistar […] evenly composed of males and females with the mean body weight of 174.38 ± 7.64 g, provided by Institute of Laboratory Animal Science, Chinese Acadamy of Medical Sciences, and License number: SCXK (Jing) 2000-0006.
The sixty healthy rats were randomly assigned into the following six groups: (1) the blank control group administered with distilled water (10 ml/kg); (2) the Mucosolvan group (11 mg /kg); (3) the GLKCNC group (1.5 g crude drug/kg); (4) the low dosage group of the present medication (L-dosage group, 2 g crude drug/kg); (5) the medium dosage group of the present medication (M-dosage group, 4 g crude drug/kg); (6)the high dosage group of the present medication (H-dosage group, 8 g crude drug/kg). […] The skin of neck was incised and the trachea was separated, on which an orifice was pricked with a syringe needle at the median site of the lower edge of the thyroid cartilage between the two cartilages. A piece of glass capillary with the length of 5 cm and the inner diameter of 0.8 mm was inserted through the orifice in a way such that the glass capillary was just contact the inner wall of the trachea. When the glass capillary was filled up with sputum, it would be replaced immediately with another one. The sputum volume in capillaries was determined in 1 hour prior to the administration. One hour later, the animals in the experimental group were administered duodenally with the medications at a volume of 10 ml/kg, while the animals in the control group were administered with equal amount of physiological saline. […] Comparisons among the groups were performed by t-test with the average amount of the secretion in 1 hour prior to administration serving as a normal value.

sputum volume in mice = experiment: Effect on sputum volume in mice measured by phenol red; format: in vivo, ICR mice; conditions: Mucosolvan 16mg/kg i.g. q.d. 3 days; n=10
Description: as §1, with “6.25 g crude drugs/g,” for “6.25 g of crude drug/g,”, “g crude drugs/g, provided by” for “of crude drug/g, provided by”, “lot number:030307. […]” for “lot number:030307.”
Sixty healthy mice were randomly assigned into the following six groups: (1) the blank control group administered with distilled water (25 ml/kg); (2) the Mucosolvan group (16 mg/kg); (3) the GLKCNC group (2 g crude drugs/kg); (4) the low dosage group of the present medication (L-dosage group, 3 g crude drugs/kg); (5) the medium dosage group of the present medication (M-dosage group, 6 g crude drugs/kg); (6)the high dosage group of the present medication (H-dosage group, 12 g crude drugs/kg). […] The optical density (OD) value of the flush liquid was measured by a UV-visible spectrophotometer UV-120-02 at a wavelength of 546nm, in which the level of phenol red in the flush liquid (µg/ml) was calculated on the basis of phenol red standard curve. […]

[4] = Mucosolvan 11mg/kg duodenal, n=10
[5] = Mucosolvan 11mg/kg duodenal, vs 1 h prior to administration

Question: With Cn1c(=O)c2[nH]cnc2n(C)c1=O [Aminophylline] as the compound, how does the Falling-down time [1] read?
Answer: 358.5 ± 3.4 s

Question: What about the Incubation period ([1]; more than 6 min counted as 360 s) of the same compound?
Answer: 228.0 ± 43.3 s

Question: For Clc1ccc(C(OCCN2CCCCC2)c2ccccc2)cc1 (centres unmarked) [CHT, Cloperastine Hydrochloride], which Cough number [2] is on record?
Answer: 6.10±3.57 times/5min

Question: What about the Incubation period [2] of the same compound?
Answer: 196.80 ± 66.22 s

Question: And the Cough number [3]?
Answer: 28.40±9.75 times /3 min

Question: What about the Incubation period [3] of the same compound?
Answer: 118.30 ± 27.23 s

Question: For Cl.Nc1c(Br)cc(Br)cc1CNC1CCC(O)CC1 (centres unmarked) [Mucosolvan], which “Excretion value, 1 h post administration” value (sputum volume in rats; [4]) is on record?
Answer: 8.76±2.51 cm

Question: What about the “Excretion value, 2 h post administration” value (sputum volume in rats; [4]) of the same compound?
Answer: 8.50±1.79 cm

Question: What about the “Excretion value, Change rate, 1 h post administration” value (sputum volume in rats; [5]) of the same compound?
Answer: 238.05±77.76%

Question: And the “Excretion value, Change rate, 2 h post administration” value (sputum volume in rats; [5])?
Answer: 67.48±11.94%

Question: What about the “Excretion value, Difference, 1 h post administration” value (sputum volume in rats; [5]) of the same compound?
Answer: 6.01±1.56 cm

Question: And the “Excretion value, Difference, 2 h post administration” value (sputum volume in rats; [5])?
Answer: 5.75±1.64 cm

Question: What about the “Excretion value, 1 h prior to administration” value (sputum volume in rats; Mucosolvan group 11mg/kg, baseline before dosing, n=10) of the same compound?
Answer: 2.75±1.08 cm

Question: And the “Amount of excreted phenol red” value (sputum volume in mice)?
Answer: 1.538 ± 0.486 µg/mL
